Test results from US10703733B2, “MCL-1 inhibitors” (Gilead Sciences, Inc., priority 2018, dated 2020).

How the values were obtained:
[1] = biological target: MCL-1/Bim interaction (recombinant human MCL-1 protein, residues 171-327; biotinylated human Bim peptide, residues 51-76) (Homo sapiens (Human), UniProt Q07820); assay: MCL-1/Bim Binding AlphaLISA Assay; details: 0.0625 nM 6xHis-Mcl-1 (171-327), 0.0625 nM biotinylated-Bim peptide
In short: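 Protein 0.0625 nM + cpd, 1 h; add biotin-Bim 0.0625 nM, 2 h; acceptor beads 1 h; donor beads 1 h; AlphaScreen read. Buffer 20 mM Hepes pH 7.5, 150 mM NaCl, 1 mM DTT.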

[2] = system: SKBR3 cells; assay: SKBR3 Cell Viability Assay (CellTiter Glo); format: cell-based; details: Homo sapiens, SK-BR-3, 72 h, CellTiter Glo luminescence, read-out: MCL-1 CV SKBR3 EC50
In short: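 Viability read as CellTiter Glo luminescence after 72 h of compound exposure at 37° C./5% CO2, using 6,000 SKBR3 cells per well in McCoy 5A with 10% FBS. Percent inhibition scaled between DMSO wells and 10 μM puromycin wells.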

Chain of MCL-1/Bim interaction (recombinant human MCL-1 protein, residues 171-327; biotinylated human Bim peptide, residues 51-76) (Q07820 171-327): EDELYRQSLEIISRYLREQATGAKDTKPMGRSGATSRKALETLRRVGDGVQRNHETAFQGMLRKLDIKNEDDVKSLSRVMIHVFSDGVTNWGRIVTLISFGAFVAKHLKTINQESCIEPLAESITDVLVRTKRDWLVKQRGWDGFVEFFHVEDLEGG

SMILES | IC50 [1] [nM] | EC50 [2] [nM]
CCn1ccc(CCC(=O)N[S@@]2(=O)=NC(=O)c3ccc4c(c3)N(C[C@@H]3CC[C@H]3[C@@H](OC)/C=C/C[C@H](C)[C@H]2C)C[C@@]2(CCCc3cc(Cl)ccc32)CO4)n1 [Example 408] | 0.054 | 241
CO[C@H]1/C=C/C[C@H](C)C[S@@](=O)(NC(=O)c2cnoc2)=NC(=O)c2ccc3c(c2)N(C[C@@H]2CC[C@H]21)C[C@@]1(CCCc2cc(Cl)ccc21)CO3 [Example 409] | 0.147 | 297
C[C@H]1C/C=C/[C@H](OCC2CC2)[C@@H]2CC[C@H]2CN2C[C@@]3(CCCc4cc(Cl)ccc43)COc3ccc(cc32)C(=O)N=[S@](=O)(NC(=O)c2cnn(C)c2)C1 [Example 410] | 0.194 | 146
CO[C@H]1/C=C/C[C@H](C)C[S@@](=O)(NC(=O)c2cnsc2)=NC(=O)c2ccc3c(c2)N(C[C@@H]2CC[C@H]21)C[C@@]1(CCCc2cc(Cl)ccc21)CO3 [Example 411] | 0.178 | 175
CO[C@H]1/C=C/C[C@H](C)C[S@@](=O)(NC(=O)C2Cc3cccnc3C2)=NC(=O)c2ccc3c(c2)N(C[C@@H]2CC[C@H]21)C[C@@]1(CCCc2cc(Cl)ccc21)CO3 (some centres unmarked) [Example 412] | 0.072 | 179
CO[C@H]1/C=C/C[C@H](C)C[S@@](=O)(NC(=O)c2cc(C)n(C)c2)=NC(=O)c2ccc3c(c2)N(C[C@@H]2CC[C@H]21)C[C@@]1(CCCc2cc(Cl)ccc21)CO3 [Example 413] | 0.478 | 130
CO[C@H]1/C=C/C[C@H](C)[C@@H](C)[S@@](=O)(NC(=O)NC2CC2)=NC(=O)c2ccc3c(c2)N(C[C@@H]2CC[C@H]21)C[C@@]1(CCCc2cc(Cl)ccc21)CO3 [Example 414] | 0.217 | 154
CO[C@H]1/C=C/C[C@H](C)C[S@@](=O)(NC(=O)c2cc3n(c2)CCCC3)=NC(=O)c2ccc3c(c2)N(C[C@@H]2CC[C@H]21)C[C@@]1(CCCc2cc(Cl)ccc21)CO3 [Example 415] | 0.526 | 105
CO[C@H]1/C=C/C[C@H](C)C[S@@](=O)(NC(=O)CO[C@H]2CCOC[C@H]2F)=NC(=O)c2ccc3c(c2)N(C[C@@H]2CC[C@H]21)C[C@@]1(CCCc2cc(Cl)ccc21)CO3 [Example 416] | 0.047 | 131
CO[C@H]1/C=C/CCC[S@@](=O)(NC(=O)COC2CCN(C(=O)N(C)C)CC2)=NC(=O)c2ccc3c(c2)N(C[C@@H]2CC[C@H]21)C[C@@]1(CCCc2cc(Cl)ccc21)CO3 [Example 417] | 0.092 | 403
COC(=O)N1CCC(OCC(=O)N[S@@]2(=O)=NC(=O)c3ccc4c(c3)N(C[C@@H]3CC[C@H]3[C@@H](OC)/C=C/C[C@H](C)[C@H]2C)C[C@@]2(CCCc3cc(Cl)ccc32)CO4)CC1 [Example 418] | 0.197 | 335
CO[C@H]1/C=C/C[C@H](C)C[S@@](=O)(NC(=O)c2cnn(CC3CC3)c2)=NC(=O)c2ccc3c(c2)N(C[C@@H]2CC[C@H]21)C[C@@]1(CCCc2cc(Cl)ccc21)CO3 [Example 419] | 0.186 | 135
CCCn1cc(C(=O)N[S@@]2(=O)=NC(=O)c3ccc4c(c3)N(C[C@@H]3CC[C@H]3[C@@H](OC)/C=C/C[C@H](C)C2)C[C@@]2(CCCc3cc(Cl)ccc32)CO4)cn1 [Example 420] | 0.237 | 124
CCNC(=O)N[S@@]1(=O)=NC(=O)c2ccc3c(c2)N(C[C@@H]2CC[C@H]2[C@@H](OC)/C=C/C[C@H](C)C1)C[C@@]1(CCCc2cc(Cl)ccc21)CO3 [Example 421] | 0.081 | 152
CCn1ncc(C(=O)N[S@@]2(=O)=NC(=O)c3ccc4c(c3)N(C[C@@H]3CC[C@H]3[C@@H](OC)/C=C/C[C@H](C)C2)C[C@@]2(CCCc3cc(Cl)ccc32)CO4)n1 [Example 422] | 0.035 | 187
CO[C@H]1/C=C/C[C@H](C)C[S@@](=O)(NC(=O)NC2CCC2)=NC(=O)c2ccc3c(c2)N(C[C@@H]2CC[C@H]21)C[C@@]1(CCCc2cc(Cl)ccc21)CO3 [Example 423] | 0.056 | 169
